Results on nine compounds are retold here after ChEMBL document CHEMBL1201862, “PubChem BioAssay data set” (2004).

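Cultured in 96-well plates, cells were exposed to test compound for 48 hours across five concentrations. At the GI50, growth is halved.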 The source made the active and inactive calls. Rule as the data show it: active = GI50 up to about 1.1 µM and inactive = higher.

Test systems include CAKI-1; DLD-1; DMS-114; DMS-273; HCC 2998; KM-20L2; M14; M19-MEL; MOLT-4; OVCAR-3; RPMI-8226; SK-MEL-5; SNB-75; SR; XF498.
Common to all, as to assay: growth of human tumour cells (NCI), 48 h

Consider `CCOC(=O)C1(C#N)C(c2ccccc2)CC(O)(c2ccc(Cl)cc2)C(C(=O)c2ccc(Cl)cc2)C1c1ccccc1` (stereo not given), for which the GI50 in the assay on CAKI-1 is > 100 µM (inactive); in the assay with DLD-1 it was > 100 µM (inactive); in the assay on DMS-114, > 100 µM (inactive); in the assay with DMS-273, 67.1 µM (inactive); in the assay with HCC 2998 it was > 100 µM (inactive); in the assay on KM-20L2, > 100 µM (inactive). The GI50 in the assay on M14 is > 100 µM (inactive); in the assay on M19-MEL, > 100 µM (inactive); in the assay on MOLT-4, 80.4 µM (inactive); in the assay with OVCAR-3, > 100 µM (inactive); with RPMI-8226 it was 76.6 µM (inactive); with SK-MEL-5 it was > 100 µM (inactive). The figures for the GI50 with SNB-75, in the assay on SR and with XF498 were 21.1 µM (inactive), > 100 µM (inactive) and 65.9 µM (inactive), respectively.
Consider `O=C1C(Cl)C(c2ccccc2Cl)N1n1cnc2ccccc2c1=O` (stereo not given), for which the GI50 is 47.6 µM (inactive) in the assay on CAKI-1; 61.7 µM (inactive) in the assay with DLD-1; 16.4 µM (inactive) in the assay on DMS-114; 26 µM (inactive) in the assay on DMS-273; 39.6 µM (inactive) with HCC 2998; > 100 µM (inactive) with KM-20L2. The GI50 was 94 µM (inactive) in the assay with M14; > 100 µM (inactive) in the assay with M19-MEL; 68.5 µM (inactive) in the assay with MOLT-4; > 100 µM (inactive) in the assay on OVCAR-3; 35 µM (inactive) with RPMI-8226; > 100 µM (inactive) with SK-MEL-5. For the same compound, the GI50 was 20.2 µM (inactive) in the assay on SNB-75, 5.13 µM (inactive) in the assay on SR and 67.6 µM (inactive) in the assay on XF498.
Regarding `O=C(c1ccccc1)c1c(CC(O)c2ccccc2)n(C(=O)c2ccccc2)c2ccccc12` (stereo not given), the GI50 in the assay on CAKI-1 was 55.7 µM (inactive); in the assay with DLD-1, 40.9 µM (inactive); with DMS-114 it was 28 µM (inactive); with DMS-273 it was 43 µM (inactive); in the assay with HCC 2998, 42.1 µM (inactive); in the assay with KM-20L2 it was 55.8 µM (inactive). The GI50 was 33 µM (inactive) in the assay on M14; 59 µM (inactive) in the assay with M19-MEL; 16.6 µM (inactive) with MOLT-4; 28.8 µM (inactive) in the assay on OVCAR-3; 25.2 µM (inactive) with RPMI-8226; 29.2 µM (inactive) in the assay with SK-MEL-5. The GI50 was 6.97 µM (inactive) in the assay with SNB-75, 16.9 µM (inactive) with SR and > 100 µM (inactive) in the assay on XF498.
As for `Clc1cc2ns[s+]c2cc1Cl`, the GI50 is 18.9 µM (inactive) in the assay on CAKI-1; 13.1 µM (inactive) with DLD-1; 29.1 µM (inactive) in the assay on DMS-114; 32.3 µM (inactive) with DMS-273; 59.7 µM (inactive) in the assay on HCC 2998; 14.3 µM (inactive) in the assay on KM-20L2. The GI50 in the assay on M14 was 9.73 µM (inactive); in the assay with M19-MEL, 61.4 µM (inactive); with MOLT-4 it was 29.9 µM (inactive); in the assay on OVCAR-3, 65 µM (inactive); with RPMI-8226, 31 µM (inactive); in the assay on SK-MEL-5, > 37 µM (inactive). The GI50 was 21 µM (inactive) in the assay on SNB-75, 23.2 µM (inactive) in the assay with SR and > 83.6 µM (inactive) in the assay with XF498.
Regarding `O=[N+]([O-])c1ccc(C(Cl)C(Cl)c2ccc(C(Cl)C(Cl)c3ccc([N+](=O)[O-])cc3[N+](=O)[O-])cc2)c([N+](=O)[O-])c1` (stereo not given), the GI50 is 1.67 µM (inactive) in the assay on CAKI-1; 1.78 µM (inactive) in the assay with DLD-1; 1.42 µM (inactive) in the assay on DMS-114; 1.47 µM (inactive) in the assay on DMS-273; 1.96 µM (inactive) in the assay on HCC 2998; 0.0638 µM (active) in the assay on KM-20L2. In addition, the GI50 with M14 is 0.879 µM (active); in the assay on M19-MEL, 1.33 µM (inactive); with MOLT-4, 1.61 µM (inactive); in the assay with OVCAR-3 it was 0.254 µM (active); in the assay on RPMI-8226, 0.8 µM (active); with SK-MEL-5, 0.991 µM (active). In addition, the GI50 in the assay with SNB-75 was 8.02 µM (inactive); in the assay with SR, 2.23 µM (inactive); in the assay with XF498 it was 0.184 µM (active).
Turning to `CC(CN1CCN(CC(C)Nc2ccnc3cc(Cl)ccc23)CC1)Nc1ccnc2cc(Cl)ccc12` (stereo not given), the GI50 in the assay with CAKI-1 was 35.4 µM (inactive); in the assay on DLD-1 it was 16.9 µM (inactive); with DMS-114 it was 20.2 µM (inactive); in the assay with DMS-273, 16.3 µM (inactive); in the assay with HCC 2998, 16.6 µM (inactive); in the assay on KM-20L2, 13.4 µM (inactive). Moreover, the GI50 is 14.5 µM (inactive) in the assay with M14; 21.8 µM (inactive) in the assay on M19-MEL; 9.38 µM (inactive) in the assay with MOLT-4; 22.8 µM (inactive) in the assay on OVCAR-3; 9.79 µM (inactive) with RPMI-8226; 17.5 µM (inactive) in the assay on SK-MEL-5. The GI50 in the assay on SNB-75 is 16.9 µM (inactive); in the assay with SR, 1.83 µM (inactive); in the assay on XF498, 23.3 µM (inactive).
Regarding `COc1cc(CN[C@H]2CCc3cc(OC)c(OC)c(OC)c3-c3ccc(SC)c(=O)cc32)cc(OC)c1`, the GI50 with CAKI-1 is 0.0566 µM (active); with DLD-1, 0.0411 µM (active); in the assay with DMS-114, 0.0222 µM (active); in the assay with DMS-273, 0.0341 µM (active); with HCC 2998, 0.0319 µM (active); in the assay with KM-20L2, 0.0206 µM (active). The GI50 was 0.0322 µM (active) in the assay on M14; 0.0308 µM (active) in the assay with M19-MEL; 0.452 µM (active) in the assay on MOLT-4; 0.0334 µM (active) with OVCAR-3; 0.0324 µM (active) with RPMI-8226; 0.0336 µM (active) with SK-MEL-5. Also, the GI50 with SNB-75 was 0.0243 µM (active); in the assay with SR, < 0.01 µM (active); in the assay with XF498 it was 0.0596 µM (active).
In the case of `CC(C)=CC(=O)N1CCN(C(=O)C=C(C)C)CC1`, the GI50 in the assay with CAKI-1, with DLD-1, with DMS-114, in the assay on DMS-273, in the assay on HCC 2998 and in the assay with KM-20L2 was > 100 µM (inactive) throughout. The GI50 with M14, with M19-MEL, in the assay with MOLT-4, in the assay on OVCAR-3, in the assay on RPMI-8226 and in the assay with SK-MEL-5 was > 100 µM (inactive) in each case. Moreover, the GI50 in the assay with SNB-75, in the assay with SR and with XF498 was > 100 µM (inactive) throughout.
Regarding `N#CC(C#N)=Cc1ccc(Oc2ccccc2)cc1`, the GI50 in the assay on CAKI-1 is 43.8 µM (inactive); in the assay with DLD-1, 14.1 µM (inactive); in the assay with DMS-114, 26.2 µM (inactive); in the assay with DMS-273, 18.3 µM (inactive); in the assay on HCC 2998, 97.5 µM (inactive); in the assay on KM-20L2 it was > 91.4 µM (inactive). Besides, the GI50 is 22.2 µM (inactive) in the assay on M14; 32 µM (inactive) with M19-MEL; 28.6 µM (inactive) in the assay on MOLT-4; 26.4 µM (inactive) in the assay with OVCAR-3; 18.1 µM (inactive) in the assay on RPMI-8226; 24.5 µM (inactive) with SK-MEL-5. Further, the GI50 in the assay with SNB-75 is 25.1 µM (inactive); in the assay on SR it was 41.3 µM (inactive); in the assay on XF498, 37.8 µM (inactive).
